From ChEMBL document CHEMBL4138254 (ACS Med Chem Lett, 2017)
≈ marks a conversion by molar mass, not a printed value.

Legend:
in vitro [1] = conditions: rat, liver microsomes
Description: Clearance in rat liver microsomes at 1 uM in presence of NADPH by LC-MS/MS analysis relative to hepatic blood flow

in vitro [2] = conditions: human, liver microsomes
Description: Clearance in human liver microsomes at 1 uM in presence of NADPH by LC-MS/MS analysis relative to hepatic blood flow

physchem [3] = conditions: pH 6.8 buffer solution
Description: Aqueous solubility of the compound in pH 6.8 buffer solution after 24 hrs by LC-UV analysis

in vitro [4] = conditions: human, Caco-2
Description: Apparent permeability across apical to basolateral side in human Caco2 cells at 10 uM measured up to 90 mins

Autotaxin [5] = molecular target: T1, Autotaxin (Rattus norvegicus, UniProt Q64610); test: Inhibition of recombinant rat ATX using LPC 18:1 as substrate after 2 hrs by rapidfire/MS-based analysis
physchem [6] = conditions: pH 4.5 buffer solution
Description: Aqueous solubility of the compound in pH 4.5 buffer solution after 24 hrs by LC-UV analysis

Autotaxin [7] = molecular target: T1, Autotaxin; test: Inhibition of ATX in rat whole blood using LPA 17:0 as substrate after 1 hr by LC-MS/MS analysis
physchem [8] = conditions: pH 2.2 buffer solution
Description: Aqueous solubility of the compound in pH 2.2 buffer solution after 24 hrs by LC-UV analysis

[9] = molecular target: Voltage-gated inwardly rectifying potassium channel KCNH2 (Homo sapiens, UniProt Q12809)
Chain of Voltage-gated inwardly rectifying potassium channel KCNH2 (Q12809 whole entry): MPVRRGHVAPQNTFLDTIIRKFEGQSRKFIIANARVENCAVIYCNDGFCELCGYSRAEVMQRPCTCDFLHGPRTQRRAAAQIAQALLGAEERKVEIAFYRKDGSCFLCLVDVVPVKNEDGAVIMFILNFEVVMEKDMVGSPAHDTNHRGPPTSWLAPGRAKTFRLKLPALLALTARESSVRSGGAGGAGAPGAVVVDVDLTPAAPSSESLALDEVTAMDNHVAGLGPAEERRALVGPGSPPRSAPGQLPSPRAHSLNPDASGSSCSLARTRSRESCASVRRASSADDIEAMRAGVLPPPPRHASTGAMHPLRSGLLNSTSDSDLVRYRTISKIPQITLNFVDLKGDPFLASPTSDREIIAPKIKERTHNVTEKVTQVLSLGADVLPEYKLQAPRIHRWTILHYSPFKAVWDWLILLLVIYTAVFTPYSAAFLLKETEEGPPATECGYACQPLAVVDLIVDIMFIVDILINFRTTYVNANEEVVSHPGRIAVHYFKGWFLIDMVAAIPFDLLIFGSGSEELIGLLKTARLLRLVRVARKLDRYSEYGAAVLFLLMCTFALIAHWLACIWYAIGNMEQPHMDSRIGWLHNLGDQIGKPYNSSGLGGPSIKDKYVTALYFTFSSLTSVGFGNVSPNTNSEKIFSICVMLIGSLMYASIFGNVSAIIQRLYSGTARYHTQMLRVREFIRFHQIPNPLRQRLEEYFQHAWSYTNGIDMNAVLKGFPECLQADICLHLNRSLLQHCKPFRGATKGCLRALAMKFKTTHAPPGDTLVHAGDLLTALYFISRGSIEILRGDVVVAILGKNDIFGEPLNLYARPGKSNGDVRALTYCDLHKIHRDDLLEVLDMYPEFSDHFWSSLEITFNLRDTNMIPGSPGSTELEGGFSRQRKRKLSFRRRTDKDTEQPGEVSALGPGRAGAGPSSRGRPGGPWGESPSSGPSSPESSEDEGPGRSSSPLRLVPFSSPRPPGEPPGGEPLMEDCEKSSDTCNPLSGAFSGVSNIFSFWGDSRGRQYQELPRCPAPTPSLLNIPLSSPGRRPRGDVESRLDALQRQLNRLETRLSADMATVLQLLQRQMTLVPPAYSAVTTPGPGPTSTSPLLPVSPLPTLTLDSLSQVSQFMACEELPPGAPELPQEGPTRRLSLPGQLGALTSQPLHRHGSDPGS
Description: Inhibition of human ERG expressed in HEK293 cells by patch clamp assay

hepatic extraction ratio at 1 µM (in vitro [1]) | hepatic extraction ratio at 1 µM (in vitro [2]) | solubility at 24 h (physchem [3]) [µg/mL] | Papp A→B at 1.5 h, 10 µM (in vitro [4]) [nm/s] | IC50 (Autotaxin [5]) [µM] | solubility at 24 h (physchem [6]) [µg/mL] | IC50 (Autotaxin [7]) [µM] | solubility at 24 h (physchem [8]) [µg/mL] | Compound | IC50 [9] [µM]
0.88 | 0.94 | < 1 | 180 | 0.0023 | < 1 | 0.007 | < 1 | O=C(NC[C@@H]1[C@H]2CN(C(=O)CCc3cc(Cl)cc(Cl)c3)C[C@@H]12)c1ccc2[nH]c(=O)oc2c1 | 8.1
> 0.22 | 0.25 | < 1 | 380 | 0.0017 | < 1 | 1.9 | < 1 | O=C(NC[C@@H]1[C@H]2CN(C(=O)/C=C/c3cc(Cl)cc(Cl)c3)C[C@@H]12)c1ccc2[nH]c(=O)oc2c1 | 4.2
0.64 | 0.41 | < 1 | 1370 | 0.0031 | < 1 | 0.056 | < 1 | O=C(NC[C@@H]1[C@H]2CN(C(=O)OCc3cc(Cl)cc(Cl)c3)C[C@@H]12)c1ccc2[nH]c(=O)oc2c1 | > 10
 |  |  |  |  |  | 0.307 |  | O=C(CCN1CCN(C(=O)OCc2cc(Cl)cc(Cl)c2)CC1)c1ccc2[nH]c(=O)oc2c1 | 0.48
0.35 | 0.36 | < 1 | 20 | 0.0139 | < 1 | 0.077 | < 1 | O=C(NC[C@@H]1[C@H]2CN(C(=O)NCc3cc(Cl)cc(Cl)c3)C[C@@H]12)c1ccc2[nH]c(=O)oc2c1 | > 10
< 0.22 | 0.25 | 56 (≈ 133 µM) | 10 | 1.53 | 66 (≈ 156 µM) | 1.61 | > 92 | Cc1ccc(COC(=O)N2C[C@@H]3[C@@H](CNC(=O)c4ccc5[nH]c(=O)oc5c4)[C@@H]3C2)nc1 | > 10
 |  |  |  | 0.049 |  | 0.0069 |  | CC(C)(C)OC(=O)N1CCCC(COC(=O)N2C[C@@H]3[C@@H](CNC(=O)c4ccc5[nH]c(=O)oc5c4)[C@@H]3C2)C1 (some centres undefined) | 
< 0.22 | < 0.23 | 63 (≈ 153 µM) | 20 | 1.67 | > 93 |  | > 86 | Cc1cc(COC(=O)N2C[C@@H]3[C@@H](CNC(=O)c4ccc5[nH]c(=O)oc5c4)[C@@H]3C2)no1 | > 10

Compound | hepatic extraction ratio at 1 µM (in vitro [1]) | hepatic extraction ratio at 1 µM (in vitro [2]) | solubility at 24 h (physchem [3]) [µg/mL] | Papp A→B at 1.5 h, 10 µM (in vitro [4]) [nm/s] | IC50 (Autotaxin [5]) [µM] | solubility at 24 h (physchem [6]) [µg/mL] | IC50 (Autotaxin [7]) [µM] | solubility at 24 h (physchem [8]) [µg/mL] | IC50 [9] [µM]
N#Cc1cc(COC(=O)N2C[C@@H]3[C@@H](CNC(=O)N4CCc5c(O)noc5C4)[C@@H]3C2)cc(C(=O)OC(F)(F)F)c1 | < 0.22 | < 0.23 | > 113 |  | 0.01 | < 1 |  | < 1 | > 10
